# Measured values as given in ChEMBL document CHEMBL4130521, “Artificial Macrocycles as Potent p53-MDM2 Inhibitors” (ACS Med Chem Lett, 2017).
# Target: E3 ubiquitin-protein ligase Mdm2 (Homo sapiens, UniProt Q00987)
# Sequence (Q00987 whole entry): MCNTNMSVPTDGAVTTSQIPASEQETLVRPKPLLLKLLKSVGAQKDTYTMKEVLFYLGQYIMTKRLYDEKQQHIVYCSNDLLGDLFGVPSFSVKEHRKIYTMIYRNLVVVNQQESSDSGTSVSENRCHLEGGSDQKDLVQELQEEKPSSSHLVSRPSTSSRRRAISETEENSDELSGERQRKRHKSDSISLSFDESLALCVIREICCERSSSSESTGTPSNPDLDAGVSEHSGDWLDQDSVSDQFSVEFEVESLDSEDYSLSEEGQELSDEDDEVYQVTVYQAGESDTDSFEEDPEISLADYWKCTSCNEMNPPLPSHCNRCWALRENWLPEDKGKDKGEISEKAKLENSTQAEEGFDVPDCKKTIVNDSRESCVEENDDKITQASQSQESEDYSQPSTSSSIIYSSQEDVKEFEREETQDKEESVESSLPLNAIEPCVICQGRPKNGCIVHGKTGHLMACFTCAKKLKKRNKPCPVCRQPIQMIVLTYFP
row,Ki,Structure (SMILES)
1,Not Active,O=C(O)c1[nH]c2cc(Cl)ccc2c1C1C(=O)NCCCCCCCCCCCCCC(=O)N1Cc1ccc(Cl)cc1 (stereo not drawn)
2,Not Active,O=C(O)c1[nH]c2cc(Cl)ccc2c1C1C(=O)NCCCCCCCCCCCCCC(=O)N1Cc1ccc(F)cc1 (stereo not drawn)
3,Not Active,CCOC(=O)c1[nH]c2cc(Cl)ccc2c1C1C(=O)NCCCCCCCCCCCCCCCCCCCC(=O)N1Cc1ccc(OCc2ccc(Cl)c(Cl)c2)cc1 (stereo not drawn)
